Broadly, the Cmax is the maximum level reached in the sampled fluid or tissue. As a reminder, the Tmax is the time from dosing to the highest level.

SMILES strings stand for the structures. Marks after values point to notes of the source that are not given here.

The text below walks through data of patent US20240208905A1, “ABIRATERONE DERIVATIVE, PREPARATION AND APPLICATION THEREOF” (GUANGDONG ZHONGKE MEDICINE R&D LTD., priority 2021, published 2024).

Data set [1] relates to human prostate cancer cell VCaP nude mouse transplanted tumor model. The data set is described as follows: Prostate tumor pharmacodynamics experiment: VCaP nude mouse transplanted tumor model. The data set is classed as in vivo, BALB/c nude mice. To be noted: 0.5 mmol·kg−1 i.g. QD; for Tumor volume, day 25: * P<0.05, ** P<0.01 vs solvent control.
Procedure: Male BALB/c nude mice (number: 90; age: 6-7 weeks) purchased from Beijing Vital River Laboratory Animal Technology Co., Ltd., were raised in the SPF animal room of Suzhou Shengsu New Drug Development Co., Ltd. at a temperature of 20˜25° C. and a relative humidity 40%˜70%, and bright and dark illumination for 12 hours respectively; these mice were allowed to drink and eat freely. After normal feeding for about 6 days, mice with good physical signs can be selected for this experiment after veterinary inspection. Before grouping, animals were identified at their base of tail using marking pens. After grouping, each animal was identified by ear clipping.
Human prostate cancer cells VCaP were obtained from the Shanghai Cell Bank of the Chinese Academy of Sciences (CAS, cryopreserved in liquid nitrogen in our laboratory).
Under a culture condition of 5% CO2 and 37° C., VCaP cells were routinely cultured in DMEM medium containing 10% fetal bovine serum. Digested with 0.25% trypsin and passaged, VCaP cells were passaged 2-3 times per week based on cell growth, with a passage ratio of 1:3 to 1:5.
The VCaP cells in logarithmic growth phase were collected, counted, and resuspended in 50% DMEM basal medium and 50% Matrigel Matrix, and the cell concentration was adjust to 5×10^7 cells/mL; the cells was placed in an ice box; Cell suspension was aspirated with a 1 ml syringe, and injected subcutaneously to the anterior right armpit of nude mice. Each animal was inoculated with 200 μL (1×10^7 cells/mouse), and a VCaP transplant tumor model in nude mice was established. Regularly observe the status of mice, measure the diameter of the tumor with an electronic vernier caliper, input the data into Excel spreadsheets, calculate the tumor volume, and monitor its growth. When the tumor volume reached 100-300 mm3, 60 mice with good health and similar tumor volume were selected, and divided into 10 groups (n=6) based on the tumor volume using random block method, while ensuring that the average body weight of each group remained consistent as much as possible. The day of grouping was taken as the first day of the experiment (D1). The tumor diameters were measured twice a week after the initiation of the experiment, the tumor volumes were calculated, and the body weights of the animals were weighed and recorded at the same time.
Preparation of DMSO&PEG400&PG (v:v:v, 10:60:30): appropriate volumes of DMSO, PEG400 and PG were drawed respectively, and mixed well. The ratio of DMSO, PEG400 and PG in the mixture is 10:60:30 (v:v:v), and this mixture is used as a blank solvent and stored at room temperature.
Appropriate amount of the test compound was weighed and added into a glass bottle, appropriate volume of solvent DMSO was added, be treated with vortex ultrasonication, then appropriate volumes of PEG400 and PG were added in turn, be vortex mixed to obtain a dosing formulation with a final concentration of 0.05M. The dosing formulation was stored in refrigerator at 2-8° C. after subpackaging, and was stirred evenly with vortex before each administration. The dosing formulation was prepared every 7 days, and was subpackaged and stored in refrigerator at 4° C.
Appropriate amount of ZONK1901-10 was weighed and added into a glass bottle, appropriate volume of corn oil, was added, be treated with vortex ultrasonication evenly, a dosing formulation with a final concentration of 19.58 mg·mL-1 (0.05 M) was obtained.
Data set [2] in a line: Pharmacokinetic experiment after intragastric administration in mice (LC-MS/MS of ZONK1901-1 and ZONK1901-2).
Procedure: To study the pharmacokinetic properties after intragastric administration in mice.
Each mouse was collected at 2-3 discrete points in time.
An LC-MS/MS analysis method for determining the concentrations of ZONK 1901-1 and ZONK1901-2 in mouse whole blood was established. At the same time, the obtained plasma concentration data was calculated by using the pharmacokinetic processing software Pharsight Phoenix WinNonlin8.0 non-compartmental model to calculate relevant pharmacokinetic parameters.
For data set [3], the system named is experimental rabbit ear acne. The data set is described as follows: Pharmacodynamics evaluation of acne: coal tar rabbit ear acne model, HE pathology. The data set is classed as in vivo, Japanese big-ear white rabbits. To be noted: 0.01% ointment, 1 g per animal, once a day, two weeks, 10 rabbits per group. An excerpt: There are 140 male healthy Japanese big-ear white rabbits, weighing 2.0-2.5 kg. After one week of adaptive rearing, 10 rabbits were randomly selected according to their body weights as the normal control group, and the remaining 130 rabbits were coated with coal tar once a day in the area of 2×2 cm2 at 2 cm outside the opening of ear canal, with a thickness of about 0.5 mm (Before coating, the coal tar was heated to melt in a water bath, and the last coal tar shell was removed before each application; the rabbits in normal control group were coated with olive oil by the same method as before). After 3 weeks for modeling, according to the degree of skin lesion, 130 rabbits were randomly divided into 13 groups which is model control group, Example 1 compound (1 group), Example 2 compound (2 groups), Example 3 compound (3 groups), Example 4 (4 groups), Example 5 (5 groups), Example 6 (6 groups), Example 7 (7 groups), Example 8 (8 groups), Example 9 (9 groups), Example 10 (10 groups), Example 11 (11 groups), Example 12 (12 groups), Example 13 (13 groups), and each group had 10 rabbits. After grouping, each dose group were continued to be coated coal tar in the morning, and after the coal tar was removed in the afternoon, apply the test drug or control drug (both 0.01%/10 g ointment, apply 1 g ointment per animal) on the lesion, once a day, for two consecutive weeks (the model control group and the normal control group were coated with the same amount of matrix). 24 hours after the last administration, the animals were sacrificed by air embolism, and the skin (full thickness) of the ear where the administration was administered was taken, fixed with 4% paraformaldehyde solution, stained with HE, and routinely observed for pathology.1.

Data set [4] deals with tumor model mice inoculated with Vcap (human prostate cancer cells). To be noted: intraperitoneal injections, cited from earlier work.
Setting [5] is: metabolite ZONK1901-1 (M1) in mouse blood after intragastric administration of the group's compound.
[6] abbreviates: metabolite ZONK1901-2 (M2) in mouse blood after intragastric administration of the group's compound.

`CNCCC(=O)ON=C1C=C2CC[C@H]3[C@H](CC[C@]4(C)C(c5cccnc5)=CC[C@@H]34)[C@@]2(C)CC1` [Example 6, (8S,9S,10R,13S,14S)-10,13-Dimethyl-17-(pyridin-3-yl) -6,7,8,9,10,11,12,13,14,15-decahydro-1H-cyclopenta[a]phenanthrenyl-3(2H)-one O-(3-(methylamino)propionyl)oxime]: the “Tumor volume, Day 1” value in data set [1] (Day 1 (day of grouping, start of dosing), n=6) is 227 ± 21^ mm3. Further, the “Tumor volume, day 25” value in data set [1] (day 25, n=6) is reported as 405 ± 15 * mm3. Further, the “Growth Inhibition rate (GI)” value in data set [1] (day 25, vs solvent control) turned out to be 80.7% **. Further, in data set [2] (setting [5]), the AUC0-inf was 2396 nM·h, the AUC0-t stood at 2103 nM·h, the Cmax is 0.679 µM and the time to peak (Tmax) was 2.00 h. Besides, the t1/2 in data set [2] (setting [5]) amounted to 2.73 h. Also, in data set [2] (setting [6]), the AUC0-inf was 2287 nM·h, the AUC0-t is 2237 nM·h, the Cmax is 0.421 µM and the Tmax is 2.00 h. Also, the t1/2 in data set [2] (setting [6]) turned out to be 3.17 h. In data set [3], the “degree of inflammatory cell infiltration: number of rabbits graded +” value came out at 6, the “degree of inflammatory cell infiltration: number of rabbits graded ++” value worked out at 3, the “degree of inflammatory cell infiltration: number of rabbits graded +++” value turned out to be 1 and the “degree of inflammatory cell infiltration: number of rabbits graded −” value is 0. Also, in data set [3] (hair follicle keratinization), the “Degree of keratinization: number of rabbits graded +” value turned out to be 5, the “Degree of keratinization: number of rabbits graded ++” value turned out to be 5, the “Degree of keratinization: number of rabbits graded +++” value came out at 0 and the “Degree of keratinization: number of rabbits graded −” value stood at 0.
As for `CC(=O)O[C@H]1CC[C@@]2(C)C(=CC[C@@H]3[C@@H]2CC[C@]2(C)C(c4cccnc4)=CC[C@@H]32)C1` [ZONK1901-10, abiraterone acetate, reference compound], the inhibition in vivo at 500 µmol/kg in data set [1] (Mus musculus, VCaP, po, 600 h, day 25, vs solvent control, read-out: Growth Inhibition rate (GI)) was 44.1%. Moreover, the “Tumor volume, day 25” value in data set [1] (day 25, n=6) is 765 ± 46 * mm3. Also, in data set [2] (intragastric administration), the “M2 (ZONK1901-2) in the metabolites” value is “not detected”. In data set [4], the “Autopsy finding on absorption of the drug” value is reported as “some of the drugs were not absorbed”. Besides, the “Adverse findings in tumor model mice” value in data set [4] (some mice) is “developed abdominal distension and died”.
